In series [1] the target is T1, β-catenin141–305 (Homo sapiens, UniProt P35222).
T1 construct: Amino acids 141-305 of uniprot ID: P35222; GST (cleaved yes); made in house; host or cells: E. coli BL21 (DE3)
T1 sequence (P35222 141-305): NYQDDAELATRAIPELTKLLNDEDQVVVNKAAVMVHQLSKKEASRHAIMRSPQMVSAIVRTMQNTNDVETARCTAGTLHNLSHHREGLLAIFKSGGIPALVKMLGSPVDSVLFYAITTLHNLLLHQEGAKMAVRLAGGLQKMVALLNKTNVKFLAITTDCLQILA
As to the kind of experiment: Surface Plasmon Resonance (SPR) Kd determination. Format: binding. To be noted: positive control, n=3; 1:1 binding model. How it is done: Surface Plasmon Resonance (SPR)
A Biacore T200 instrument was used for SPR analysis, β-catenin141-305 was pre-diluted to a concentration of 0.1 mg/mL with 10 mM sodium acetate buffer, pH 5.0 and immobilized at a density of 6000 –7000 response units on flow cell 2 of a Biacore CM5 chip. Carbonic anhydraseII served as a reference protein on flow cell 3 and flow cell 1 was kept blank and used as the reference surface. A mixture of 20 mM Tris, pH 7.5, 150 mM NaCl, 0.5 mM TCEP, 0.005% Tween20, 2 % dimethyl sulfoxide was used as assay buffer. After pre -equilibration of the chip with 10 blank injections, the Kd measurements were performed by injecting a concentration series of analyte (9 concentrations, 1:1 dilutions). BCL9 347-392 served as a positive control. K d values were determined by global fitting of the steady-state response for each of the 9 concentrations to a 1:1 interaction model using the Biacore T200 evaluation software. Each compound was injected three times and […]
average Kd values were calculated from the repeats. The reported data are the mean values of three independent experiments ± standard deviations. […]
Glutamax Supplement (Thermo Fisher Scientific, 35050061) with 10% FCS (GE Healthcare, SH30071.03). Transfections were performed with Lipofectamine LTX Reagent (Thermo Fisher, 15338100) according the manufacturer’s instructions.

The target in a further series is β-catenin. The arrangement: method as in PMID 17052462. To be noted: previously determined binding affinity; read-out: ITC Kd; cited from earlier work.
Series [2] has as its target T1, β-catenin141–305. As to the kind of experiment: Microscale Thermophoresis (MST) screening and Kd determination. To be noted: assay validation; PBS pH 6.8, 100 mM NaNO3, 0.5 mM TCEP, 0.05% Tween-20, 25 °C. Format: binding. How it is done: buffer (Tris 25 mM, pH 7.5, NaCl 150 mM) containing 2% DMSO-d6. A stock solution of β-catenin135-663 (12.5 µM) was dialyzed before into Tris 25 mM pH 7.6 NaCl 150 mM and centrifuged at 4° C at 15000 rpm for 20 minutes. Intensity ratios Ilogsy/I1D are derived from scaling of the 1D intensity to the corresponding LOGSY intensity. STD GEMs were acquired with 1.5 µM […]
2.0; and 3.0 seconds for the saturation time build up curves to determine the initial rate constants2.
STD experiments were acquired with on and off resonance saturation at +0.1ppm and -40ppm respectively with 1048 scans each.
Solubility of compounds was determined in NMR buffer at pH 7.5 (see above) by integrating the signal of 250 µM maleic acid as an external standard relative to the integrals of the ligands. If the intended concentrations of 500 µM respective 2000 µM were reached the value is reported as > 500 µM or > 2000 µM. Compound 3 only reached a concentration of 1000 µM according to the QNMR experiment even though 2000 µM was intended, it’s solubility is therefore reported as […]
Microscale Thermophoresis.
Fluorescence labeling of β-catenin141-305 with the NT647 dye was achieved using the Monolith NT.115 Protein Labeling Kit RED-NHS according to the manufacturer’s protocol (NanoTemper Technologies, Munich, Germany). The BCL9 peptide was used as positive control for assay development to achieve a reliably detectable change in the thermophoretic mobility ( ΔFnorm). […]
Final assay conditions were 50 nM NT647 labeled β-catenin141-305 in PBS pH 6.8 supplemented with 100 mM NaNO3, 0.5 mM TCEP and 0.05% Tween-20 at 25° C. Fragment screening detected […]
by MST was carried out as previously described8,9. […] Manual inspection of all MST traces was used to reject non-standard traces stemming from protein aggregation, bleaching, or fluorescence quenching. ΔFnorm values (ΔFnorm=Fhot/Fcold) were calculated and the mean values of the duplicates were compared to the mean values of the DMSO negative control. […] Protein integrity over the entire FBS was monitored by the BCL9 peptide positive control. […]

In series [3] the target is T1, β-catenin141–305. The series is described as follows: STD-NMR fragment screening in mixtures. To be noted: fragment mixture, 250 µM each, 10 µM protein. The class given is binding. From the text:
labelling the protein was expressed in Overnight Express™ Autoinduction NMR Medium - ¹⁵N - Novagen (Merck Millipore) according to the technical description and purified as described for the unlabeled protein. The protein of β-catenin135-663 (Amino acids 135-663 of uniprot ID: P35222) and the β-catenin binding domain of human BCL9 (Amino acids 347–392 of uniprot ID: O00512, containing an additional n-terminal glycine) was purchased (Proteros Biostructures GmbH).
Ligand based 1D 1H experiments were carried out on a Bruker Avance II 600 MHz spectrometer with a 5 mm cryo-QCI probe and z-gradients. […] The on and off resonance spectra were recorded in an interleaved fashion to minimize subtraction artifacts. […] After acquisition, the difference spectrum was calculated by subtracting the two individual spectra. […] These were readily assigned by comparing the signals with the respective pre-recorded reference spectra of the individual compounds present in the mixture. […]
For confirmation of hits obtained from STD-NMR by 2D 15N TROSY NMR4 a Bruker Avance III 600 MHz instrument with a 5 mm cryo-TCI probe and z-gradient was used. […] Spectra were recorded with 48 transients and 64 data points in the indirect dimension. […]
1D, GEM by STD and WaterLOGSY experiments were recorded at 298 K on an Avance III 700MHz spectrometer equipped with a cryogenically cooled 5mm TCI probe. […]

Series [4] has as its target T1, β-catenin141–305. As to the kind of experiment: 2D 15N NMR (TROSY/HSQC/HMQC) detected binding and Kd titration. How it is done:
The construct for expression of β-catenin141-305 (Amino acids 141-305 of uniprot ID: P35222) is based on the previously reported R4 construct1. The plasmid was used to transform E. coli, strain BL21 (DE3) cells (Invitrogen). For protein expression, an overnight culture in LB-medium supplemented ampicillin (100 µg/mL) at 37 °C was prepared and diluted the next day with fresh 2xYT-medium. At OD600 of 0.8 the culture was cooled down to 18 °C and after induction with 0.5 mM IPTG incubated for 20 h. Cell pellets obtained by centrifugation at 5000 rpm were stored at - 20 °C. Cells were solubilized in buffer A (2X Dulbecco’s PBS; 500 mM NaCl; 10 % Glycerol; 0.5 mM TCEP; cOmplete™ Protease Inhibitor Cocktail; pH 7.4) and disrupted by sonication (Sonopuls, Bandelin) on ice. After 30 min the sonicated lysate was clarified by centrifugation (50 min, 13500 rpm, 4 °C). The supernatant was mixed with 20 mL Glutathione Sepharose® 4B resin (GE Healthcare) slurry, washed in lysis buffer, and steered for 3 hours on ice. The beads were spun down, loaded into a XK16 column cartridge and washed with lysis buffer until baseline. The protein was eluted with buffer B (2X Dulbecco’s PBS; 500 mM NaCl; 10 % Glycerol; 0.5 mM TCEP;; pH 7.4) + 25 mM L-Glutathione reduced. After cleavage with 2000 units Human Alpha Thrombin (Enzyme Research Laboratories) at room temperature overnight, the protein was collected in the flow-through fraction of a second GST run (GSTrap HP 5 mL column; GE Healthcare) using buffer B. The flow-through was concentrated by centrifugation using an Amicon© Ultra 15 mL Centrifugal Filter (Merck Millipore) and loaded onto a HiLoad Superdex S75 column (GE Healthcare) equilibrated with 50 mM Tris; 200 mM NaCl; 3 mM DTT; pH 8.
Fractions were analyzed by SDS-PAGE and fractions containing the desired protein were pooled and concentrated with an Amicon© Ultra 15 mL Centrifugal Filter (Merck Millipore). […]
For confirmation of hits obtained from STD-NMR by 2D 15N TROSY NMR4 a Bruker Avance III 600 MHz instrument with a 5 mm cryo-TCI probe and z-gradient was used. The experimental set up (automated sample preparation and transfer into the magnet by a Tecan Freedom Evo pipetting robot and a Bruker Sample Rail system, respectively) was identical. Each sample contained 25 uM 15N labeled β-catenin141-305 25 mM sodium phosphate, 150 mM sodium chloride, 100 mM sodium nitrate, 0.5mM TCEP pH 6.8 in H2O at 25 °C and 8% (v/v) D2O. The protein was incubated with 500 uM fragment in a 2.5 mm NMR tube at 25 °C and a d6DMSO concentration of 1%. Spectra were recorded with 48 transients and 64 data points in the indirect dimension. Manual comparison of the spectrum in the presence of the to be tested fragment with the DMSO reference spectrum reveal either line broadening or chemical shift perturbation of cross peaks. Both effects are indicative for compound binding. All processing and analysis was done with the Topspin 2.1 software (Bruker BioSpin). Further spectral comparisons were performed with the FELIX software package (Felix NMR Inc.) to combine manual with automated analysis5. […]
700MHz spectrometer equipped with a cryogenically cooled 5mm TCI probe. […]
The
WaterLOGSY pulse sequence was used as described before7. Selective water inversion was achieved with a double excitation sculpting element employing water selective Gaussian refocusing pulses (inversion bandwidth of 0.5 ppm, pulse length of 7.5 ms). The number of scans was set to 2048. Sample concentrations were 0.5 mM ligand and 0.25–10 µM β-catenin135-663 in […]

Series [5] can be described thus: Solubility in NMR buffer at pH 7.5 by quantitative NMR (maleic acid external standard). Format: physicochemical. To be noted: NMR buffer (Tris/NaCl with 2% DMSO-d6), aqueous buffer, kinetic from dmso stock; NMR buffer pH 7.5; intended concentration 500 or 2000 μM; read-out: Solub. pH 7.5. As for the experimental part:
buffer (Tris 25 mM, pH 7.5, NaCl 150 mM) containing 2% DMSO-d6. […]
Solubility of compounds was determined in NMR buffer at pH 7.5 (see above) by integrating the
signal of 250 µM maleic acid as an external standard relative to the integrals of the ligands. If the
intended concentrations of 500 µM respective 2000 µM were reached the value is reported as >
500 µM or > 2000 µM. […]

As for “BCL9^347−392: β-catenin binding domain of human BCL9 (amino acids 347–392, additional N-terminal glycine), positive control (NPDGLSQEQLEHRERSLQTLRDIQRMLFPDEKEFTGAQSGGPQQNP; additional N-terminal glycine; UniProt O00512 347-392, looked up, fragment) [reference compound]”, the results for the Kd with β-catenin141–305 [1], on β-catenin and in the series with β-catenin141–305 [2] were 0.225 µM, 0.54 µM and 0.36 µM, respectively.
For `O=C1NCCNc2c1cccc2[N+](=O)[O-]` [Compound 1], the STD-NMR binding result at β-catenin141–305 [3] is listed as “unambiguously identified as binders”. Besides, the “chemical shift perturbations (CSPs) in 2D 15N NMR” value at β-catenin141–305 [4] (500 μM compound) is reported as “minor chemical shift perturbation”. The dissociation constant Kd on β-catenin141–305 [4] (15N NMR titration, single titration, mean of curves of selected cross peaks ± SD, read-out: HSQC Kd) is > 10000 µM. In addition, in series [5], the solubility is > 500 µM.
